System: STAT5 Y694 phosphorylation
Assay: Protein electrophoresis and blotting of STAT5 Y694 phosphorylation in Jurkat cells stimulated with human interferon beta
Assay type: cell-based
Conditions: for Inhibiting Ratio (0% for vehicle control): 1 hour pretreatment, 20 ng/ml human interferon beta 30 minutes, pSTAT5/GAPDH; for Example of Effect 1: Inhibiting Ability (Protein Electrophoresis and Blotting): observed pSTAT5 bands at 10 μM and 100 μM
Protocol: Example of Effect 1: Protein Electrophoresis and Blotting Experiment
Standard protein electrophoresis and chemiluminescence imaging equipment (Bio-Rad);
Protein lysate RIPA (Lianke Biological; Cat #WB020); Western blot transfer membrane PVDF (Millipore; Cat #IPVH00010);
Jurkat cells (ATCC American Standard Culture Center, TIB152) were cultured in a 6-well plate at a density of 1×10^6/ml with RPMI medium […] 10% fetal bovine serum in a humidified incubator at 37° C. and maintained at 5% carbon dioxide overnight. On the second day, the cells were pretreated with compounds of different concentrations (the mother liquor of the compound prepared by dimethyl sulfoxide was diluted in the medium at the required concentration) for 1 hour, and then stimulated with 20 ng/ml human interferon beta for 30 minutes, it was mixed thoroughly and then placed in an incubator at 37° C. environment. […] Then an appropriate volume of RIPA Lysis Solution was added, it was mixed well, and placed on ice for 1 hour, inverted and mixed several times in the middle. Then, the cell lysate was centrifuged at 12000 rpm at 4° C. for 10 minutes, and the supernatant was transferred to another test tube, aliquoted and stored at −20° C. until use.
An equal volume of protein lysate was mixed with an appropriate 6-fold protein loading buffer (Biyun Tian Biochemical Company P0015F), and the mixture was heated at 95 degrees for 10 minutes, after full denaturation, the protein sample was added to the polyacrylamide gel (self-made, raw material purchased from Soleibao Biotechnology Company A1010, 30% acrylamide solution), and electrophoresis was performed at the appropriate voltage for 1 hour, until the strips were fully separated. It was transferred to a polyvinylidene fluoride membrane according to standard procedures, and blocked with 5% skim milk for 1 hour, and the specified antibody was added, and it was diluted 1:1000 in 3% bovine serum albumin, and it was incubated overnight for four degrees. It was thoroughly rinsed, incubated with the secondary antibody, exposed to chemiluminescence and signals were collected. ImageJ software was used to quantify the obtained chemiluminescence results. The same area was selected, the gray values of STAT5 phosphorylation band and GAPDH band of each sample were analyzed, and the ratio of pSTAT5/GAPDH level was calculated. The value of the solvent-treated sample was 100%, and the remaining samples were converted into relative data in the same proportion, that is, the percentage corresponding to the solvent sample. […] The solvent control group was the same as the test compound group except that DMSO was used instead of the DMSO solution of the test compound. N1 (Pimozide) was a specific positive control.

With `O=C(Cc1ccc(C(F)(F)F)cc1)N1CC(n2c(=O)[nH]c3ccccc32)C1` [GEN1-023, 1-(1-(2-(4-(trifluoromethyl)phenyl)acetyl)azetidin-3-yl)-1H-benzo[d]imidazole-2(3H)-one] the “Inhibiting Ratio (0% for vehicle control)” value (1 μM) was 9.4%, the “Inhibiting Ratio (0% for vehicle control)” value (10 μM) was 33.3% and the “Inhibiting Ratio (0% for vehicle control)” value (100 μM) was 93.6%. For the same compound, the “Example of Effect 1: Inhibiting Ability (Protein Electrophoresis and Blotting)” value (from here on “Example of Effect 1: Inhibiting Ability”) was “+”.
`O=C(Cc1ccc(C(F)(F)F)cc1)N[C@H]1C[C@@H](n2c(=O)[nH]c3ccccc32)C1` [GEN1-024, N-((1s,3s)-3-(2-oxo-2,3-dihydro-1H-benzo[d]imidazol-1-yl)cyclobutyl)-2-(4-(trifluoromethyl)phenyl)acetamide] was tested, and the “Example of Effect 1: Inhibiting Ability” value was “−”.
With `O=C(Cc1ccc(C(F)(F)F)cc1)N[C@H]1C[C@H](n2c(=O)[nH]c3ccccc32)C1` [GEN1-025, N-((1r,3r)-3-(2-oxo-2,3-dihydro-1H-benzo[d]imidazol-1-yl)cyclobutyl)-2-(4-(trifluoromethyl)phenyl)acetamide] the “Example of Effect 1: Inhibiting Ability” value was “−”.
With `O=C(Cc1ccc(C(F)(F)F)nc1)N1CCC(n2c(=O)[nH]c3ccccc32)CC1` [GEN1-027, 1-(1-(2-(6-(trifluoromethyl)pyridin-3-yl)acetyl)piperidin-4-yl)-1H-benzo[d]imidazole-2(3H)-one] the “Example of Effect 1: Inhibiting Ability” value was “+”.
With `O=C(Cc1ccc(C(F)(F)F)cn1)N1CCC(n2c(=O)[nH]c3ccccc32)CC1` [GEN1-028, 1-(1-(2-(5-(trifluoromethyl)pyridin-2-yl)acetyl)piperidin-4-yl)-1H-benzo[d]imidazole-2(3H)-one] the “Inhibiting Ratio (0% for vehicle control)” value (1 μM) was 14.5%, the “Inhibiting Ratio (0% for vehicle control)” value (10 μM) was 32.6% and the “Inhibiting Ratio (0% for vehicle control)” value (100 μM) was 93.3%. The “Example of Effect 1: Inhibiting Ability” value was “−”.
In the case of `O=C(Cc1cccc(C(F)(F)F)c1)N1CCC(n2c(=O)[nH]c3ccccc32)CC1` [GEN1-029, 1-(1-(2-(3-(trifluoromethyl)phenyl)acetyl)piperidin-4-yl)-1H-benzo[d]imidazole-2(3H)-one], the “Inhibiting Ratio (0% for vehicle control)” value (1 μM) is reported as −74.1%, the “Inhibiting Ratio (0% for vehicle control)” value (10 μM) is reported as −67.7% and the “Inhibiting Ratio (0% for vehicle control)” value (100 μM) is reported as 92.3%. For the same compound, the “Example of Effect 1: Inhibiting Ability” value was “+”.
For `O=C(Cc1ccccc1C(F)(F)F)N1CCC(n2c(=O)[nH]c3ccccc32)CC1` [GEN1-030, 1-(1-(2-(2-(trifluoromethyl)phenyl)acetyl)piperidin-4-yl)-1H-benzo[d]imidazole-2(3H)-one], the “Inhibiting Ratio (0% for vehicle control)” value (1 μM) was 15.7%, the “Inhibiting Ratio (0% for vehicle control)” value (10 μM) was 19.4% and the “Inhibiting Ratio (0% for vehicle control)” value (100 μM) was 94.0%. For the same compound, the “Example of Effect 1: Inhibiting Ability” value was “−”.
With `O=C(Cc1ccc(C2CC2)cc1)N1CCC(n2c(=O)[nH]c3ccccc32)CC1` [GEN1-032, 1-(1-(2-(4-cyclopropylphenyl)acetyl)piperidin-4-yl)-1H-benzo[d]imidazole-2(3H)-one] the “Inhibiting Ratio (0% for vehicle control)” value (1 μM) was −16.3%, the “Inhibiting Ratio (0% for vehicle control)” value (10 μM) was 13.8% and the “Inhibiting Ratio (0% for vehicle control)” value (100 μM) was 94.9%. For the same compound, the “Example of Effect 1: Inhibiting Ability” value was “+”.
For `O=C(Cc1ccc(-c2ccccc2)cc1)N1CCC(n2c(=O)[nH]c3ccccc32)CC1` [GEN1-033, 1-(1-(2-([1,1′-biphenyl]-4-yl)acetyl)piperidin-4-yl)-1H-benzo[d]imidazole-2(3H)-one], the “Inhibiting Ratio (0% for vehicle control)” value (1 μM) was 12.8%, the “Inhibiting Ratio (0% for vehicle control)” value (10 μM) was 7.6% and the “Inhibiting Ratio (0% for vehicle control)” value (100 μM) was 98.0%. The “Example of Effect 1: Inhibiting Ability” value was “+”.
`O=C(Cc1ccc(N2CCOCC2)cc1)N1CCC(n2c(=O)[nH]c3ccccc32)CC1` [GEN1-034, 1-(1-(2-(4-morpholinophenyl)acetyl)piperidin-4-yl)-1H-benzo[d]imidazole-2(3H)-one] was tested, and the “Example of Effect 1: Inhibiting Ability” value was “−”.
In the case of `O=C(Cc1ccc(C(F)(F)F)cc1)N1CCC(n2c(=O)[nH]c3ncccc32)CC1` [GEN1-041, 1-(1-(2-(4-(trifluoromethyl)phenyl)acetyl)piperidin-4-yl)-1H-imidazo[4,5-b]pyridine-2(3H)-one], the “Example of Effect 1: Inhibiting Ability” value is reported as “+”.
`O=C(Cc1ccc(C(F)(F)F)cc1)N1CCC(n2c(=O)[nH]c3cnccc32)CC1` [GEN1-042, 1-(1-(2-(4-(trifluoromethyl)phenyl)acetyl)piperidin-4-yl)-1H-imidazo[4,5-c]pyridin-2(3H)-one] was tested, and the “Example of Effect 1: Inhibiting Ability” value was “+”.
With `O=C(Cc1ccc(C(F)(F)F)cc1)N1CCC(n2c(=O)[nH]c3ccncc32)CC1` [GEN1-043, 3-(1-(2-(4-(trifluoromethyl)phenyl)acetyl)piperidin-4-yl)-1H-imidazo[4,5-c]pyridin-2(3H)-one] the “Example of Effect 1: Inhibiting Ability” value was “−”.
With `O=C(Cc1ccc(C(F)(F)F)cc1)N1CCC(n2c(=O)[nH]c3cccnc32)CC1` [GEN1-044, 3-(1-(2-(4-(trifluoromethyl)phenyl)acetyl)piperidin-4-yl)-1H-imidazo[4,5-b]pyridin-2(3H)-one] the “Example of Effect 1: Inhibiting Ability” value was “+”.
With `O=C1Nc2ccccc2C1C1CCN(C(=O)Cc2ccc(C(F)(F)F)cc2)CC1` (stereo not drawn) [GEN1-051, 3-(1-(2-(4-(trifluoromethyl)phenyl)acetyl)piperidin-4-yl)indol-2-one] the “Example of Effect 1: Inhibiting Ability” value was “+”.
`O=C(Cc1ccc(C(F)(F)F)cc1)N1CCC(N2c3ccccc3NS2(=O)=O)CC1` [GEN1-054, 1-(4-(2,2-dioxybenzo[c] [1,2,5]thiadiazole-1(3H)-yl)piperidin-1-yl)-2-(4-(trifluoromethyl)phenyl)ethenone] was tested, and the “Example of Effect 1: Inhibiting Ability” value was “−”.
With `O=C(Cc1ccc(C(F)(F)F)cc1)N1CCC(n2c(=O)n(O)c3ccccc32)CC1` [GEN1-059, 1-hydroxy-3-(1-(2-(4-(trifluoromethyl)phenyl)acetyl)piperidin-4-yl)-1H-benzo[d]imidazol-2(3H)-one] the “Example of Effect 1: Inhibiting Ability” value was “−”.
For `N#CNc1nc2ccccc2n1C1CCN(C(=O)Cc2ccc(C(F)(F)F)cc2)CC1` [GEN1-061], the “Example of Effect 1: Inhibiting Ability” value was “+”.
`O=C(Cc1ccc(C(F)(F)F)cc1)NCC1Cc2cccc3[nH]c(=O)n(c23)C1` (stereo not drawn) [GEN1-065] was tested, and the “Example of Effect 1: Inhibiting Ability” value was “−”.
For `O=c1[nH]c2ccccc2n1C1CCN(S(=O)(=O)Cc2ccc(C(F)(F)F)cc2)CC1` [GEN1-068, 1-(1-((4-(trifluoromethyl)benzyl)sulfonyl)piperidin-4-yl)-1H-benzo[d]imidazol-2(3H)-one], the “Example of Effect 1: Inhibiting Ability” value was “−”.
For `COc1ccc(CC(=O)N2CCC(n3c(=O)[nH]c4ccccc43)CC2)cc1` [GEN1-070, 1-(1-(2-(4-methoxyphenyl)acetyl)piperidin-4-yl)-1H-benzo[d]imidazol-2(3H)-one], the “Example of Effect 1: Inhibiting Ability” value was “−”.
With `O=C(Cc1ccc(O)cc1)N1CCC(n2c(=O)[nH]c3ccccc32)CC1` [GEN1-071, 1-(1-(2-(4-hydroxyphenyl)acetyl)piperidin-4-yl)-1H-benzo[d]imidazol-2(3H)-one] the “Example of Effect 1: Inhibiting Ability” value was “−”.
In the case of `O=C(Cc1ccc2ccccc2c1)N1CCC(n2c(=O)[nH]c3ccccc32)CC1` [GEN1-073, 1-(1-(2-(naphth-2-yl)acetyl)piperidin-4-yl)-1H-benzo[d]imidazol-2(3H)-one], the “Example of Effect 1: Inhibiting Ability” value is reported as “+”.
In the case of `O=C(Cc1ccc(C(F)(F)F)o1)N1CCC(n2c(=O)[nH]c3ccccc32)CC1` [GEN1-078, 1-(1-(2-(5-(trifluoromethyl)furan-2-yl)acetyl)piperidin-4-yl)-1H-benzo[d]imidazol-2(3H)-one], the “Example of Effect 1: Inhibiting Ability” value is reported as “+”.
For `O=C(Cc1ccc(C(F)(F)F)cc1)NCc1cnc2c(c1)CC(=O)N2` [GEN1-083, N-((2-oxo-2,3-dihydro-1H-pyrrolo[2,3-b]pyridin-5-yl)methyl)-2-(4-(trifluoromethyl)phenyl)acetamide], the “Example of Effect 1: Inhibiting Ability” value was “−”.
With `O=C(Cc1ccc(C(F)(F)F)cc1)NCc1ccc2c(c1)C(=O)NC2` [GEN1-084, N-((3-oxoisoindol-5-yl)methyl)-2-(4-(trifluoromethyl)phenyl)acetamide] the “Example of Effect 1: Inhibiting Ability” value was “+”.
In the case of `O=C(Cn1c(=O)[nH]c2ccccc21)N1CCC(O)(c2ccc(C(F)(F)F)cc2)CC1` [GEN1-085, 1-(2-(4-hydroxy-4-(4-(trifluoromethyl)phenyl)piperidin-1-yl)-2-oxoethyl)-1H-benzo[d]imidazol-2(3H)-one], the “Example of Effect 1: Inhibiting Ability” value is reported as “−”.

From patent US20230099441A1, “HETEROCYCLIC COMPOUND, APPLICATION THEREOF, AND COMPOSITION CONTAINING SAME” (GenEros Biopharma Ltd., priority 2019, published 2023)
